From ChEMBL document CHEMBL1138629, “Synthesis of 61-bis(1-adamantylcarbamoyl)-1,2-methano[60]fullerene and its antagonistic effect on haloperidol-induced catalepsy in mice” (Bioorg Med Chem Lett, 2004) come the findings set out here.

As usually defined, the IC50 is the midpoint of a concentration-inhibition curve. Read a low IC50 as higher potency.

The target in this experiment is T1, Fatty-acid amide hydrolase 1 (Mus musculus, UniProt O08914).
T1 sequence (O08914 whole entry): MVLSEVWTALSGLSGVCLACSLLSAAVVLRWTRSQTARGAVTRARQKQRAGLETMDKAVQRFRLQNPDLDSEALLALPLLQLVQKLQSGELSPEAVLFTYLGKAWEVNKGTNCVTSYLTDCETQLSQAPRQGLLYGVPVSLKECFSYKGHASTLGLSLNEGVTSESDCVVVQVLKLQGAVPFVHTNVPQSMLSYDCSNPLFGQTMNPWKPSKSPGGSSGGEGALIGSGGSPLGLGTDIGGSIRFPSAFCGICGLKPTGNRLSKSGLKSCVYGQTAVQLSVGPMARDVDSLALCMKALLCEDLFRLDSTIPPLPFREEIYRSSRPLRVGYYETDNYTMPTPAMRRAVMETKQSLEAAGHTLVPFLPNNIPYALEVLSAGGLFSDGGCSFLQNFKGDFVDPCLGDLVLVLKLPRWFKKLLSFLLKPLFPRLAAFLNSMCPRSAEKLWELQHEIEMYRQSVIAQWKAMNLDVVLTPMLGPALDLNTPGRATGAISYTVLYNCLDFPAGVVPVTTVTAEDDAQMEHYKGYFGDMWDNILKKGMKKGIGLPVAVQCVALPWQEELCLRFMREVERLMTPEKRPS
The experiment can be described thus: Inhibitory concentration against mouse fatty acid amide hydrolase. It is filed as functional.

Regarding `NC(=O)CCC/C=C\C/C=C\C/C=C\C/C=C\CCCCCC12CC3CC(CC(C3)C1)C2`, the IC50 came to 37.4 µM.
